What was measured:
[1] = tested on: Mus musculus; test: Compound was tested for mortality in L1210 leukemia implanted BDF1 mice on day 0 after ip administration of 80 mg/kg/day on day 1 out of 5 mice; type: functional; details: route intraperitoneal
[2] = tested on: Mus musculus; test: Compound was evaluated for number of survivors in L1210 leukemia implanted BDF1 mice on day 0 after ip administration of 2.5 mg/kg/day on day 60 out of 5 mice; type: functional; details: route intraperitoneal
[3] = tested on: Mus musculus; test: Compound was evaluated for %T/C in P388 leukemia implanted BDF1 mice on day 0 after ip administration of 80 mg/kg/day on day 1; type: functional; details: route intraperitoneal
[4] = tested on: Mus musculus; test: Compound was tested for mortality in P388 leukemia implanted BDF1 mice on day 0 after ip administration of 50 mg/kg/day on day 1-5 out of 6 mice; type: functional; details: route intraperitoneal
[5] = tested on: Mus musculus; test: Compound was tested for mortality in L1210 leukemia implanted BDF1 mice on day 0 after ip administration of 12.5 mg/kg/day on day 1-9 out of 6 mice; type: functional; details: route intraperitoneal
[6] = tested on: Mus musculus; test: Compound was evaluated for number of survivors in L1210 leukemia implanted BDF1 mice on day 0 after ip administration of 40 mg/kg/day on day 60 out of 5 mice; type: functional; details: route intraperitoneal
[7] = tested on: Mus musculus; test: Compound was evaluated for number of survivors in L1210 leukemia implanted BDF1 mice on day 0 after ip administration of 3.12 mg/kg/day on day 60 out of 6 mice; type: functional; details: route intraperitoneal
[8] = tested on: Mus musculus; test: Compound was evaluated for %T/C in P388 leukemia implanted BDF1 mice on day 0 after ip administration of 10 mg/kg/day on day 1; type: functional; details: route intraperitoneal
[9] = tested on: Mus musculus; test: Compound was evaluated for number of survivors in P388 leukemia implanted BDF1 mice on day 0 after ip administration of 7.5 mg/kg/day on day 60 out of 5 mice; type: functional; details: route intraperitoneal
[10] = tested on: Mus musculus; test: Compound was evaluated for number of survivors in P388 leukemia implanted BDF1 mice on day 0 after ip administration of 50 mg/kg/day on day 60 out of 5 mice; type: functional; details: route intraperitoneal
[11] = tested on: Mus musculus; test: Compound was tested for mortality in L1210 leukemia implanted BDF1 mice on day 0 after ip administration of 2.5 mg/kg/day on day 1-5 out of 5 mice; type: functional; details: route intraperitoneal
[12] = tested on: Mus musculus; test: Compound was evaluated for %T/C in P388 leukemia implanted BDF1 mice on day 0 after ip administration of 50 mg/kg/day on day 1-5; type: functional; details: route intraperitoneal
[13] = tested on: Mus musculus; test: Compound was evaluated for %T/C in L1210 leukemia implanted BDF1 mice on day 0 after ip administration of 80 mg/kg/day on day 1; type: functional; details: route intraperitoneal
[14] = tested on: Mus musculus; test: Compound was evaluated for number of survivors in L1210 leukemia implanted BDF1 mice on day 0 after ip administration of 6.25 mg/kg/day on day 60 out of 6 mice; type: functional; details: route intraperitoneal
[15] = tested on: Mus musculus; test: Compound was evaluated for %T/C in L1210 leukemia implanted BDF1 mice on day 0 after ip administration of 10 mg/kg/day on day 1; type: functional; details: route intraperitoneal
[16] = tested on: Mus musculus; test: Compound was evaluated for %T/C in P388 leukemia implanted BDF1 mice on day 0 after ip administration of 20 mg/kg/day on day 1; type: functional; details: route intraperitoneal
[17] = tested on: Mus musculus; test: Compound was tested for mortality in P388 leukemia implanted BDF1 mice on day 0 after ip administration of 20 mg/kg/day on day 1 out of 5 mice; type: functional; details: route intraperitoneal
[18] = tested on: Mus musculus; test: Compound was evaluated for %T/C in L1210 leukemia implanted BDF1 mice on day 0 after ip administration of 12.5 mg/kg/day on day 1-9; type: functional; details: route intraperitoneal
[19] = tested on: Mus musculus; test: Compound was tested for mortality in L1210 leukemia implanted BDF1 mice on day 0 after ip administration of 10 mg/kg/day on days 1-5 out of 5 mice; type: functional; details: route intraperitoneal
[20] = tested on: Mus musculus; test: Compound was tested for mortality in L1210 leukemia implanted BDF1 mice on day 0 after ip administration of 3.12 mg/kg/day on day 1-9 out of 6 mice; type: functional; details: route intraperitoneal
[21] = tested on: Mus musculus; test: Compound was evaluated for number of survivors in P388 leukemia implanted BDF1 mice on day 0 after ip administration of 20 mg/kg/day on day 60 out of 5 mice; type: functional; details: route intraperitoneal
[22] = tested on: Mus musculus; test: Compound was tested for mortality in L1210 leukemia implanted BDF1 mice on day 0 after ip administration of 5 mg/kg/day on day 1-5 out of 5 mice; type: functional; details: route intraperitoneal
[23] = tested on: Mus musculus; test: Compound was tested for mortality in L1210 leukemia implanted BDF1 mice on day 0 after ip administration of 20 mg/kg/day on days 1-5 out of 5 mice; type: functional; details: route intraperitoneal
[24] = tested on: Mus musculus; test: Compound was evaluated for %T/C in P388 leukemia implanted BDF1 mice on day 0 after ip administration of 2.5 mg/kg/day on day 1-5; type: functional; details: route intraperitoneal
[25] = tested on: Mus musculus; test: Compound was evaluated for %T/C in P388 leukemia implanted BDF1 mice on day 0 after ip administration of 6.25 mg/kg/day on day 1-5; type: functional; details: route intraperitoneal
[26] = tested on: Mus musculus; test: Compound was evaluated for number of survivors in P388 leukemia implanted BDF1 mice on day 0 after ip administration of 25 mg/kg/day on day 60 out of 6 mice; type: functional; details: route intraperitoneal
[27] = Half-life period in 95% ethanol in dark at 28 degrees celsius.; type: ADME
[28] = tested on: Mus musculus; test: Compound was tested for mortality in P388 leukemia implanted BDF1 mice on day 0 after ip administration of 5 mg/kg/day on day 1-5 out of 5 mice; type: functional; details: route intraperitoneal
[29] = tested on: Mus musculus; test: Compound was tested for mortality in P388 leukemia implanted BDF1 mice on day 0 after ip administration of 40 mg/kg/day on day 1 out of 5 mice; type: functional; details: route intraperitoneal
[30] = tested on: Mus musculus; test: Compound was evaluated for number of survivors in P388 leukemia implanted BDF1 mice on day 0 after ip administration of 40 mg/kg/day on day 60 out of 5 mice; type: functional; details: route intraperitoneal
[31] = tested on: Mus musculus; test: Compound was evaluated for %T/C in P388 leukemia implanted BDF1 mice on day 0 after ip administration of 25 mg/kg/day on day 1-5; type: functional; details: route intraperitoneal
[32] = tested on: Mus musculus; test: Compound was evaluated for %T/C in L1210 leukemia implanted BDF1 mice on day 0 after ip administration of 50 mg/kg/day on day 1-9; type: functional; details: route intraperitoneal
[33] = tested on: Mus musculus; test: Compound was tested for mortality in P388 leukemia implanted BDF1 mice on day 0 after ip administration of 7.5 mg/kg/day on day 1-5 out of 5 mice; type: functional; details: route intraperitoneal
[34] = tested on: Mus musculus; test: Compound was evaluated for number of survivors in P388 leukemia implanted BDF1 mice on day 0 after ip administration of 80 mg/kg/day on day 60 out of 5 mice; type: functional; details: route intraperitoneal
[35] = Half-life period in 95% ethanol in diffuse laboratory light at 28 degrees celsius.; type: ADME
[36] = tested on: Mus musculus; test: Compound was evaluated for %T/C in L1210 leukemia implanted BDF1 mice on day 0 after ip administration of 6.25 mg/kg/day on day 1-9; type: functional; details: route intraperitoneal
[37] = tested on: Mus musculus; test: Compound was tested for mortality in L1210 leukemia implanted BDF1 mice on day 0 after ip administration of 40 mg/kg/day on day 1 out of 5 mice; type: functional; details: route intraperitoneal
[38] = tested on: Mus musculus; test: Compound was tested for mortality in L1210 leukemia implanted BDF1 mice on day 0 after ip administration of 5 mg/kg/day on day 1 out of 5 mice; type: functional; details: route intraperitoneal
[39] = tested on: Mus musculus; test: Compound was evaluated for number of survivors in L1210 leukemia implanted BDF1 mice on day 0 after ip administration of 50 mg/kg/day on day 60 out of 6 mice; type: functional; details: route intraperitoneal

What does the source list for NC(=O)c1ncn2c(=O)n(CCCl)nnc12 [MITOZOLOMIDE]?
Mortality [1]: 0; Survivors [2]: 0; T/C [3]: 74%; Mortality [4]: 0; Mortality [5]: 0; Survivors [6]: 5; Survivors [7]: 0; T/C [8]: 164%; Survivors [9]: 5; Survivors [10]: 0; Mortality [11]: 0; T/C [12]: 153%; T/C [13]: 177%; Survivors [14]: 0; T/C [15]: 131%; T/C [16]: >600%; Mortality [17]: 0; T/C [18]: >745%; Mortality [19]: 0; Mortality [20]: 0; Survivors [21]: 5; Mortality [22]: 0; Mortality [23]: 0; T/C [24]: 148%; T/C [25]: 180%; Survivors [26]: 4; half-life [27]: 1.2 h; Mortality [28]: 0; Mortality [29]: 0; Survivors [30]: 5; T/C [31]: 387%; T/C [32]: 137%; Mortality [33]: 0; Survivors [34]: 0; half-life [35]: 1.17 h; T/C [36]: 184%; Mortality [37]: 0; Mortality [38]: 0; Survivors [39]: 0

Reference: ChEMBL document CHEMBL1122784, “Antitumor imidazotetrazines. 1. Synthesis and chemistry of 8-carbamoyl-3-(2-chloroethyl)imidazo[5,1-d]-1,2,3,5-tetrazin-4(3 H)-one , a novel broad-spectrum antitumor agent” (J Med Chem, 1984)
